According to patent US20210189643A1 (VF Jeanswear LP, priority 2017, published 2021):

Experiment: Hydrolysis of modified indigo compound to indigo
Type: physicochemical
Settings: under hydrolyzing conditions
Experimental: In some embodiments, the substrate is contacted with a hydrolyzing agent, the hydrolyzing agent being capable of reacting with the modified indigo compound contained within the substrate to convert the modified indigo compound into indigo.
The hydrolysis is performed using any chemical compound or condition that is capable of converting the dye compound to indigo. In some embodiments, the hydrolysis is performed in aqueous compositions which contain a hydrolyzing agent. In other embodiments, the hydrolyzing agent may be selected by one skilled in the art and may include, without limitation, a base, heat, steam, or a combination thereof.

O=C1/C(=C2/C(=O)c3ccccc3N2C(=O)c2ccncc2)N(C(=O)c2ccncc2)c2ccccc21 [Compound 37]
conversion to indigo by hydrolysis: hydrolyzes to indigo
